Legend:
IRAK4 [1] = molecular target: T1, IRAK4 (Homo sapiens, UniProt Q9NWZ3); assay: Assay for inhibitory effect of compound on IRAK4 kinase activity (KinEASE-STK S1 HTRF kit); type: biochemical; conditions: kinase 8 nM, ATP 80 µM, 37°C 90 minutes; read-out: IRAK4 HTRF IC50
T1 sequence (Q9NWZ3 1-460): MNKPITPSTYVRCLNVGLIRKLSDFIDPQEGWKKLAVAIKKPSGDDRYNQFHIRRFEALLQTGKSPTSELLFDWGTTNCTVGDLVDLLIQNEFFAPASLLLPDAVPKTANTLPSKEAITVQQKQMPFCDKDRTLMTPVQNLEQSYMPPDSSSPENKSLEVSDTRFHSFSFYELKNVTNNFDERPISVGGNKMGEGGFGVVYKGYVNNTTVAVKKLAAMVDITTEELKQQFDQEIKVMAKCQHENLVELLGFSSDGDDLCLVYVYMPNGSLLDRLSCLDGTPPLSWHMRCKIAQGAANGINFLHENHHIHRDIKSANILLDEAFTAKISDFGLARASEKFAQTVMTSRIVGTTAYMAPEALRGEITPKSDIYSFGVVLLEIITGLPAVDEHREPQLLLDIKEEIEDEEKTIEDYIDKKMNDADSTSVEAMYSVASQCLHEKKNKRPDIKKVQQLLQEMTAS
Protocol: Example 1: Kinase activity assay
Assay for inhibitory effect of compound on IRAK4 kinase activity
The inhibitory effect of the compound on IRAK4 kinase activity was measured using the KinEASE-STK S1 serine/threonine kinase kit (Cisbio). The specific method was as follows: the compound was dissolved in dimethyl sulfoxide and then subjected to 3-fold serial dilution in dimethyl sulfoxide, yielding final test compound concentrations in the reaction system ranging from 5,000 nM to 0.0254 nM. The kinase at a final concentration of 8 nM was added, followed by incubation at rt for 15 minutes. Subsequently, biotinylated STK1 substrate at a final concentration of 400 nM and adenosine triphosphate (ATP) at a final concentration of 80 µM were sequentially added, and the mixture was incubated at 37°C for 90 minutes. Then, the reaction was terminated by adding an anti-phosphoserine/threonine antibody conjugated with a europium cryptate and streptavidin-conjugated XL665 to the reaction system. After incubation at rt for 1 hour, the fluorescence intensity at emission wavelengths of 620 nm and 665 nm for each well was measured using an EnVision microplate reader (PerkinElmer) in HTRF mode. The ratio value was calculated using the formula: Ratio = (665 nm/620 nm)×10^4 The inhibition rate of the compound at each concentration was calculated using the formula: Inhibition% = [1-(Signal sample-Signal min)/(Signal max-Signal min)]×100. Subsequently, the dose-response curve was fitted by nonlinear curve fitting of log concentration versus inhibition rate using Fit Modela (205) in XLfit to give the IC50 value of the compound for inhibition of protein activity.

IRAK4 [2] = molecular target: T1, IRAK4; assay: Degradation of IRAK4 in THP1 cells, Western blot; type: cell-based; set-up: Degradation of IRAK4 in THP1 by compound; host or cells: THP-1; conditions: THP-1 cells, 24 hours of incubation; for DC50: IRAK4 protein by Western blot, read-out: DC50; for Dmax: maximum degradation rate, read-out: Dmax
How it was run: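 Degradation rate derived from densitometry of IRAK4 bands versus DMSO-treated controls. Read-out: anti-IRAK4 immunoblot (10% gel, 40 μg total protein per lane, BCA-normalised) of lysates from THP1 cells incubated with compound for 24 h.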

SMILES | IC50 (IRAK4 [1]) [nM] | DC50 (IRAK4 [2]) [nM] | Dmax (IRAK4 [2]) [%]
NC(=O)c1nn(C2COC3(CCNCC3)C2)cc1NC(=O)c1cccc(C(F)(F)F)n1 (stereo not drawn) [Compound A35] | 100 to 1000 | – | –
NC(=O)c1nn(-c2ccccc2)cc1NC(=O)c1cccc(-c2cn[nH]c2)n1 [Compound A89] | < 100 | – | –
O=C(NC1CC1)c1nn(C2CCC2)cc1NC(=O)c1cnn2ccc(-c3ccn[nH]3)nc12 [Compound A286, N-(1-cyclobutyl-3-(cyclopropylcarbamoyl)-1H-pyrazol-4-yl)-5-(1H-pyrazol-5-yl)pyrazolo[1,5-a]pyrimidine-3-carboxamide] | 100 to 1000 | – | –
O=C(Nc1cn(-c2ccccc2)nc1C1CCN1)c1cccc(-c2ccn[nH]2)n1 (stereo not drawn) [Compound A245, N-(3-(Azetidin-2-yl)-1-phenyl-1H-pyrazol-4-yl)-6-(1H-pyrazol-5-yl)picolinamide] | > 1000 | – | –
O=C(Nc1cn(-c2ccccc2)nc1CO)c1cccc(C(F)(F)F)n1 [Compound A74, N-(3-(hydroxymethyl)-1-phenyl-1H-pyrazol-4-yl)-6-(trifluoromethyl)picolinamide] | 100 to 1000 | – | –
CNC(=O)c1ccc(-n2cc(NC(=O)c3cccc(C(F)(F)F)n3)c(C(N)=O)n2)cc1 [Compound A14] | < 100 | – | –
O=C(Nc1cn(-c2ccccc2)nc1C1CC1)c1cccc(C(F)(F)F)n1 [Compound A71, N-(3-cyclopropyl-1-phenyl-1H-pyrazol-4-yl)-6-(trifluoromethyl)picolinamide] | > 1000 | – | –
O=C(Nc1cn(-c2ccccc2)nc1C(=O)NC1CC1)c1cccc(C(F)(F)F)n1 [Compound A86, N-(3-(cyclopropylcarbamoyl)-1-phenyl-1H-pyrazol-4-yl)-6-(trifluoromethyl)picolinamide] | 100 to 1000 | – | –
CS(=N)(=O)c1nn(-c2ccccc2)cc1NC(=O)c1cccc(-c2cn[nH]c2)n1 (stereo not drawn) [Compound A97, N-(3-(S-methylsulfonimidoyl)-1-phenyl-1H-pyrazol-4-yl)-6-(1H-pyrazol-4-yl)picolinamide] | < 100 | – | –
CNCc1ccc(-n2cc(NC(=O)c3cccc(C(F)(F)F)n3)c(C(N)=O)n2)cc1 [Compound A21] | < 100 | – | –
NC(=O)c1nn(-c2ccc(CO)cc2)cc1NC(=O)c1cccc(C(F)(F)F)n1 [Compound A18] | 100 to 1000 | – | –
COc1nn(C2CCCCC2)cc1NC(=O)c1cccc(-c2ccn[nH]2)n1 [Compound A263, N-(1-Cyclohexyl-3-methoxy-1H-pyrazol-4-yl)-6-(1H-pyrazol-5-yl)picolinamide] | 100 to 1000 | – | –
CN1CCN(c2ccc(-n3cc(NC(=O)c4cccc(C(F)(F)F)n4)c(C(N)=O)n3)cc2)CC1 [Compound A26] | < 100 | – | –
CS(=N)(=O)c1nn(-c2ccccc2)cc1NC(=O)c1cccc(-c2c[nH]cn2)n1 (stereo not drawn) [Compound A98, 6-(1H-imidazol-4-yl)-N-(3-(S-methylsulfonimidoyl)-1-phenyl-1H-pyrazol-4-yl)picolinamide] | 100 to 1000 | – | –
NC(=O)c1nn(C2CCC2)cc1NC(=O)c1cnn2ccc(-c3ccn[nH]3)nc12 [Compound A292, N-(3-Carbamoyl-1-cyclobutyl-1H-pyrazol-4-yl)-5-(1H-pyrazol-5-yl)pyrazolo[1,5-a]pyrimidine-3-carboxamide] | < 100 | – | –
COc1nn(C2CCC2)cc1NC(=O)c1cnn2ccc(-c3cn[nH]c3)nc12 [Compound A289, N-(1-cyclobutyl-3-methoxy-1H-pyrazol-4-yl)-5-(1H-pyrazol-4-yl)pyrazolo[1,5-a]pyrimidine-3-carboxamide] | < 100 | – | –

SMILES | IC50 (IRAK4 [1]) [nM] | DC50 (IRAK4 [2]) [nM] | Dmax (IRAK4 [2]) [%]
[C-]#[N+]c1cnn2c(C(=O)Nc3cn(-c4ccccc4)nc3OC)ccc2c1 [Compound A234, 3-Isocyano-N-(3-methoxy-1-phenyl-1H-pyrazol-4-yl)pyrrolo[1,2-b]pyridazine-7-carboxamide] | < 100 | – | –
CC(C)(O)c1cn(-c2ccccc2)nc1NC(=O)c1cccc(C(F)(F)F)n1 [Compound A61, N-(4-(2-hydroxypropan-2-yl)-1-phenyl-1H-pyrazol-3-yl)-6-(trifluoromethyl)picolinamide] | > 1000 | – | –
CC(=O)Nc1ccc(-n2cc(NC(=O)c3cccc(C(F)(F)F)n3)c(C(N)=O)n2)cc1 [Compound A12] | < 100 | – | –
NS(=O)(=O)c1nn(-c2ccccc2)cc1NC(=O)c1cccc(-n2ccnc2)n1 [Compound A261, 6-(1H-Imidazol-1-yl)-N-(1-phenyl-3-sulfamoyl-1H-pyrazol-4-yl)picolinamide] | < 100 | – | –
N#Cc1nn(-c2ccccc2)cc1NC(=O)c1cccc(C(F)(F)F)n1 [Compound A64, N-(3-cyano-1-phenyl-1H-pyrazol-4-yl)-6-(trifluoromethyl)picolinamide] | > 1000 | – | –
CC(O)c1nn(-c2ccccc2)cc1NC(=O)c1cccc(C(F)(F)F)n1 (stereo not drawn) [Compound A75, N-(3-(1-hydroxyethyl)-1-phenyl-1H-pyrazol-4-yl)-6-(trifluoromethyl)picolinamide] | 100 to 1000 | – | –
NC(=O)c1nn(C23CC(C2)C3)cc1NC(=O)c1cccc(C(F)(F)F)n1 [Compound A258] | 100 to 1000 | – | –
CC(C)(O)c1nn(C2CCCCC2)cc1NC(=O)c1ccc2cc(C#N)cnn12 [Compound A259, 3-cyano-N-(1-cyclohexyl-3-(2-hydroxypropan-2-yl)-1H-pyrazol-4-yl)pyrrolo[1,2-b]pyridazine-7-carboxamide] | 100 to 1000 | – | –
CN(C)C(=O)c1ccc(-n2cc(NC(=O)c3cccc(C(F)(F)F)n3)c(C(N)=O)n2)cc1 [Compound A15] | < 100 | – | –
CC(C)(O)c1nn(-c2ccc(N3CCN(C4CCN(c5ccc(OC6CCC(=O)NC6=O)cn5)CC4)CC3)cc2)cc1NC(=O)c1cccc(C(F)(F)F)n1 (stereo not drawn) [Compound A440, N-(1-(4-(4-(1-(5-((2,6-Dioxopiperidin-3-yl)oxy)pyridin-2-yl)piperidin-4-yl)piperazin-1-yl)phenyl)-3-(2-hydroxypropan-2-yl)-1H-pyrazol-4-yl)-6-(trifluoromethyl)picolinamide] | – | < 100 | > 60
Cn1c(=O)n(C2CCC(=O)NC2=O)c2cccc(NCCN3CC4CN(Cc5ccc(-n6cc(NC(=O)c7cccc(-c8ccn[nH]8)n7)c(S(N)(=O)=O)n6)cc5)CC4C3)c21 (stereo not drawn) [Compound A338] | – | < 100 | > 60
Cn1c(-c2ccc(N3CCC(CCN4CCN(c5ccc(-n6cc(NC(=O)c7cccc(C(F)(F)F)n7)c(C(N)=O)n6)cc5)CC4)C3)cc2)nn(C2CCC(=O)NC2=O)c1=O (stereo not drawn) [Compound A185] | – | < 100 | 40 to 60
CC(C)(O)c1nn(-c2ccc(N3CCN(C4CCN(c5ccc(NC6CCC(=O)NC6=O)cc5F)CC4)CC3)cc2)cc1NC(=O)c1cccc(C(F)(F)F)n1 (stereo not drawn) [Compound A439, N-(1-(4-(4-(1-(-4-((2,6-Dioxopiperidin-3-yl)amino)-2-fluorophenyl)piperidin-4-yl)piperazin-1-yl)phenyl)-3-(2-hydroxypropan-2-yl)-1H-pyrazol-4-yl)-6-(trifluoromethyl)picolinamide] | – | < 100 | > 60
NC(=O)c1nn(-c2ccc(N3CCN(C4CCN(c5ccc(NC6CCC(=O)NC6=O)cc5F)CC4)CC3)cc2)cc1NC(=O)c1cccc(C(F)(F)F)n1 (stereo not drawn) [Compound A365, 1-{4-[4-(1-{4-[(2,6-dioxopiperidin-3-yl)amino]-2-fluorophenyl}piperidin-4-yl)piperazin-1-yl]phenyl}-4-({[6-(trifluoromethyl)pyridin-2-yl]carbonyl}amino)pyrazole-3-carboxamide] | – | < 100 | > 60
NC(=O)c1nn(-c2ccc(N3CCN(C(=O)C4CCN(c5cc(F)c(C6CCC(=O)NC6=O)c(F)c5)C4)CC3)cc2)cc1NC(=O)c1cccc(C(F)(F)F)n1 (stereo not drawn) [Compound A414] | – | < 100 | > 60
Cn1c(=O)n(C2CCC(=O)NC2=O)c2cccc(N3CCC(CN4CCN(c5ccc(-n6cc(NC(=O)c7cccc(C(F)(F)F)n7)c(C(N)=O)n6)cc5)CC4)C3)c21 (stereo not drawn) [Compound A305, N-(3-carbamoyl-1-(4-(4-((1-(1-(2,6-dioxopiperidin-3-yl)-3-methyl-2-oxo-2,3-dihydro-1H-benzo[d]imidazol-4-yl)pyrrolidin-3-yl)methyl)piperazin-1-yl)phenyl)-1H-pyrazol-4-yl)-6-(trifluoromethyl)picolinamide] | – | 100 to 1000 | 40 to 60

Source: patent publication EP4763839A1 (Pamplona Therapeutics (Shenzhen) Co., Ltd., priority 2023, dated 2025)
